Measurements from patent publication US9320722B2, “Regulators of aldehyde dehydrogenase ALDH3A1 and related therapeutic methods” (Indiana University Research and Technology Corporation, priority 2013, dated 2016).
Where two headings read alike, the source gives them in different places. Each block holds one compound with its values, some of them ahead of it.

How the values were obtained:
ALDH3A1 [1] = target: T1, ALDH3A1 (Homo sapiens (Human), UniProt P30838); type: biochemical; conditions: wt ALDH3A1
T1 sequence (P30838 whole entry): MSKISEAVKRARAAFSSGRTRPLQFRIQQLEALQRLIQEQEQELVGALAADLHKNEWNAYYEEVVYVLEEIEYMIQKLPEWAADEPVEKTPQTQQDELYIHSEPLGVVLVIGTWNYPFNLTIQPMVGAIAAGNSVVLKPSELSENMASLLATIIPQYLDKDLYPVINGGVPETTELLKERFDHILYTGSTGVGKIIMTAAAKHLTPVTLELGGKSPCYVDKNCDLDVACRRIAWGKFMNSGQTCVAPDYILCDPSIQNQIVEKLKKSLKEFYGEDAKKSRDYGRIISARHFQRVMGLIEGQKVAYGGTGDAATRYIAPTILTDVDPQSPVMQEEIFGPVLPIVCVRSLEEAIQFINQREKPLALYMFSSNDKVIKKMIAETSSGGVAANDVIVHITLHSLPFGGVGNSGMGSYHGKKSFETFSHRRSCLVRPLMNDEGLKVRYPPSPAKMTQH

ALDH3A1 Q122A mutant = ALDH3A1 Q122A mutant (Homo sapiens (Human), UniProt P30838, Q123A)
Chain of ALDH3A1 Q122A mutant (P30838 whole entry Q123A): as the sequence (P30838 whole entry) above, with Q123A counted along it
Description: (§1) These two mutant proteins were purified exactly the same way as was ALDH3A1. […] Kinetic experiments were performed exactly the same way as the wild type (WT) enzyme.

ALDH3A1 Q122W mutant = ALDH3A1 Q122W mutant (Homo sapiens (Human), UniProt P30838, Q123W)
Chain of ALDH3A1 Q122W mutant (P30838 whole entry Q123W): as the sequence (P30838 whole entry) above, with Q123W counted along it
Description: as §1

ALDH2 = ALDH2 (Homo sapiens (Human), UniProt P05091); test: ALDH2 dehydrogenase activity / IC50 determination (propionaldehyde substrate); type: biochemical; conditions: up to 250 μM
Chain of ALDH2 (P05091 18-517): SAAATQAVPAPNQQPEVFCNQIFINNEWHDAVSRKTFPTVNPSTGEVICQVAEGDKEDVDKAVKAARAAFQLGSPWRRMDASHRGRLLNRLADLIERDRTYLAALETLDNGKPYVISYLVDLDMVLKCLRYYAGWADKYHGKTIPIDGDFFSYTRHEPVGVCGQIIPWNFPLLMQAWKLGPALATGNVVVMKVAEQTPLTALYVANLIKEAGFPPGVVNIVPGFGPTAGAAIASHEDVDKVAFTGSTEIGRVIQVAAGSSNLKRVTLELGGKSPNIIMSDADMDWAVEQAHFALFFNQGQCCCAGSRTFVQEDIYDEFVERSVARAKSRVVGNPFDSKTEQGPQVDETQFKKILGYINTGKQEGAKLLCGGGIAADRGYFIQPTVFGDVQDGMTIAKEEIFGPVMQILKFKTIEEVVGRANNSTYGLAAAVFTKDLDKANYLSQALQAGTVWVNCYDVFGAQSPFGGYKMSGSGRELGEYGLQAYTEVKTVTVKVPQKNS

ALDH1A1 = ALDH1A1 (Homo sapiens (Human), UniProt P00352); test: ALDH1A1 dehydrogenase activity / IC50 determination (propionaldehyde substrate); type: biochemical; conditions: up to 250 μM
Chain of ALDH1A1 (P00352 whole entry): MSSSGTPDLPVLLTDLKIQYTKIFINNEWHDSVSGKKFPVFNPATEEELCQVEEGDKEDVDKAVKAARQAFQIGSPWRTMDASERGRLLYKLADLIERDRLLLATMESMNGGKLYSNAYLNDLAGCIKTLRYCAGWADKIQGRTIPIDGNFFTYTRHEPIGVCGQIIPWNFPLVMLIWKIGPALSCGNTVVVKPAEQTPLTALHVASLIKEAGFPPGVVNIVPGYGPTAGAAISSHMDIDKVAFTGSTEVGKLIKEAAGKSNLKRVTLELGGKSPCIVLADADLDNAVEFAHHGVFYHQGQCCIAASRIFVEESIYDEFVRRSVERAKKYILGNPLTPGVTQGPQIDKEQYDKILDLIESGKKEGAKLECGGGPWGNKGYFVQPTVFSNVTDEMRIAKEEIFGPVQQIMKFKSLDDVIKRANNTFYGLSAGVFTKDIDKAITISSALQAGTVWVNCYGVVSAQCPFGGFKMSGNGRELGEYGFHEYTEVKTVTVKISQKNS

[2] = target: ALDH3A1 activity in A549 cell lysates (Homo sapiens (Human), UniProt P30838); type: biochemical; conditions: 50 μM CB29
Chain of ALDH3A1 activity in A549 cell lysates (P30838 whole entry): as the sequence (P30838 whole entry) above

[3] = target: ALDH3A1 activity in SF767 cell lysates (Homo sapiens (Human), UniProt P30838); type: biochemical; conditions: 50 μM CB29
Chain of ALDH3A1 activity in SF767 cell lysates (P30838 whole entry): as above

ALDH3A1 [4] = target: T1, ALDH3A1; type: biochemical; conditions: 50 μM CB29
SF767 cells = test: MTT assay for cell proliferation / mafosfamide sensitivity, SF767; type: cell-based
Solubility = type: physicochemical; conditions: in the presence of […] DMSO
CCD13Lu cells = test: MTT assay for cell proliferation / mafosfamide sensitivity, CCD13Lu; type: cell-based; conditions: 10 μM compound + mafosfamide, FIG. 13c

Propionaldehyde Kcat/Km (ALDH3A1 [1]): 830 ± 50 M⁻¹ s⁻¹
Propionaldehyde Kcat/Km (ALDH3A1 [1]; listed as propionaldehyde): 830 M⁻¹ s⁻¹
Km (ALDH3A1 [1]; read-out: Propionaldehyde Km): 20.5 ± 0.272 mM
Propionaldehyde Kcat/Km (ALDH3A1 Q122A mutant): 817 ± 50 M⁻¹ s⁻¹
Propionaldehyde Kcat/Km (ALDH3A1 Q122A mutant; listed as propionaldehyde): 817 M⁻¹ s⁻¹
Km (ALDH3A1 Q122A mutant; read-out: Propionaldehyde Km): 23.9 ± 1.99 mM
Propionaldehyde Kcat/Km (ALDH3A1 Q122W mutant): 650 ± 83 M⁻¹ s⁻¹
Propionaldehyde Kcat/Km (ALDH3A1 Q122W mutant; listed as propionaldehyde): 650 M⁻¹ s⁻¹
Km (ALDH3A1 Q122W mutant; read-out: Propionaldehyde Km): 5.36 ± 0.59 mM
Compound: CCC=O [Propionaldehyde]

Compound: CC(=O)Nc1ccc(Nc2ccc(S(C)(=O)=O)cc2[N+](=O)[O-])cc1 [CB29, N-[4-{(4-(methylsulfonyl)-2-nitrophenyl)-4-amino}-phenyl]-acetamide]
inhibition toward ALDH2 (ALDH2): < 5%
inhibition toward ALDH1A1 (ALDH1A1): < 5%
decrease of ALDH3A1 activity in A549 cell lysate [2]: > 95%
decrease of ALDH3A1 activity in SF767 cell lysate [3]: > 90%
decrease of activity of recombinant ALDH3A1 (ALDH3A1 [4]): ~97%
ED50 value of mafosfamide in the presence of inhibitor, SF767 (SF767 cells; 50 μM inhibitor, 146±2 μM without inhibitor): 92 ± 4 µM
concentration of homogenous solution easily formed (Solubility): ≥ 100 µM

Compound: Cc1ccc(S(=O)(=O)n2c(C)nc3ccccc32)cc1 [Compound A10]
chemosensitivity to mafosfamide (in words), SF767 (SF767 cells; 10 μM inhibitor + mafosfamide): significantly increased chemosensitivity
effect with mafosfamide (in words), CCD13Lu (CCD13Lu cells): decreased cell proliferation
